# Experimental data published in PubChem BioAssay AID2060600 (Molecular Pharmacology Branch, DTP, NCI, 2025).
# System: 996289-038-R-J1-PDC complex spheroid viability
# Test: Anticancer human tumor 996289-038-R-J1-PDC patient-derived colon adenocarcinoma cell line growth inhibition [CLK]
# Conditions: for IC50: curve of first compound; for viability, T/C: stronger effect = lower value
# Procedure, shortened: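 Patient-derived tumor cells grown as complex spheroids with HUVEC endothelial cells and mesenchymal stem cells, treated with drug combinations. Concentrations descend in half-log steps from near clinical Cmax, or from 10 microM if Cmax unknown.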
# [1] = second compound 0.0316 µM, first compound 0.0316 µM
# [2] = second compound 0.0316 µM, first compound 0.1 µM
# [3] = second compound 0.0316 µM, first compound 0.316 µM
# [4] = second compound 0.0316 µM, first compound 1 µM
# [5] = second compound 0.0316 µM, first compound 3.16 µM
# [6] = second compound 0.0316 µM, first compound 10 µM
# [7] = second compound 0.1 µM, first compound 0.0316 µM
# [8] = second compound 0.1 µM, first compound 0.1 µM
# [9] = second compound 0.1 µM, first compound 0.316 µM
# [10] = second compound 0.1 µM, first compound 1 µM
# [11] = second compound 0.1 µM, first compound 3.16 µM
# [12] = second compound 0.1 µM, first compound 10 µM
# [13] = second compound 0.316 µM, first compound 0.0316 µM
# [14] = second compound 0.316 µM, first compound 0.1 µM
# [15] = second compound 0.316 µM, first compound 0.316 µM
# [16] = second compound 0.316 µM, first compound 1 µM
# [17] = second compound 0.316 µM, first compound 3.16 µM
# [18] = second compound 0.316 µM, first compound 10 µM
# [19] = second compound 1 µM, first compound 0.0316 µM
# [20] = second compound 1 µM, first compound 0.1 µM
# [21] = second compound 1 µM, first compound 0.316 µM
# [22] = second compound 1 µM, first compound 1 µM
# [23] = second compound 1 µM, first compound 3.16 µM
# [24] = second compound 1 µM, first compound 10 µM
# [25] = second compound 3.16 µM, first compound 0.0316 µM
# [26] = second compound 3.16 µM, first compound 0.1 µM
# [27] = second compound 3.16 µM, first compound 0.316 µM
# [28] = second compound 3.16 µM, first compound 1 µM
# [29] = second compound 3.16 µM, first compound 3.16 µM
# [30] = second compound 3.16 µM, first compound 10 µM
# [31] = second compound 10 µM, first compound 0.0316 µM
# [32] = second compound 10 µM, first compound 0.1 µM
# [33] = second compound 10 µM, first compound 0.316 µM
# [34] = second compound 10 µM, first compound 1 µM
# [35] = second compound 10 µM, first compound 3.16 µM
# [36] = second compound 10 µM, first compound 10 µM
# 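Also: spheroids exposed to the agents for 7 days before readout.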
smiles,measurement,setting,value
C=CC(=O)N1CCN(c2nc(=O)n(-c3c(C)ccnc3C(C)C)c3nc(-c4c(O)cccc4F)c(F)cc23)C(C)C1 (stereo unspecified) + CNC(=O)c1ccc(Nc2nc(OC3CCCC3)c3c(-c4ccc5nc(C)oc5c4)c[nH]c3n2)c(OC)c1,IC50,second compound 0.0316 µM,> 10 µM
same,IC50,second compound 0.1 µM,> 10 µM
same,IC50,second compound 0.316 µM,> 10 µM
same,IC50,second compound 1 µM,> 10 µM
same,IC50,second compound 3.16 µM,> 10 µM
same,IC50,second compound 10 µM,> 10 µM
same,"viability, T/C",[1],110%
same,"viability, T/C",[2],105%
same,"viability, T/C",[3],109%
same,"viability, T/C",[4],121%
same,"viability, T/C",[5],126%
same,"viability, T/C",[6],121%
same,"viability, T/C",[7],124%
same,"viability, T/C",[8],109%
same,"viability, T/C",[9],121%
same,"viability, T/C",[10],112%
same,"viability, T/C",[11],137%
same,"viability, T/C",[12],123%
same,"viability, T/C",[13],81%
same,"viability, T/C",[14],76.5%
same,"viability, T/C",[15],76.5%
same,"viability, T/C",[16],89.1%
same,"viability, T/C",[17],88.9%
same,"viability, T/C",[18],82%
same,"viability, T/C",[19],68.7%
same,"viability, T/C",[20],63.5%
same,"viability, T/C",[21],66.8%
same,"viability, T/C",[22],68.3%
same,"viability, T/C",[23],74.1%
same,"viability, T/C",[24],68.7%
same,"viability, T/C",[25],57.1%
same,"viability, T/C",[26],59.5%
same,"viability, T/C",[27],59%
same,"viability, T/C",[28],61.7%
same,"viability, T/C",[29],70.3%
same,"viability, T/C",[30],59.2%
same,"viability, T/C",[31],58.7%
same,"viability, T/C",[32],59.9%
same,"viability, T/C",[33],58%
same,"viability, T/C",[34],64.9%
same,"viability, T/C",[35],70.5%
same,"viability, T/C",[36],56.8%
CCCS(=O)(=O)Nc1ccc(F)c(C(=O)c2c[nH]c3ncc(-c4ccc(Cl)cc4)cc23)c1F + CNC(=O)c1ccc(Nc2nc(OC3CCCC3)c3c(-c4ccc5nc(C)oc5c4)c[nH]c3n2)c(OC)c1,IC50,second compound 0.0316 µM,> 10 µM
same,IC50,second compound 0.1 µM,> 10 µM
same,IC50,second compound 0.316 µM,9.36 µM
same,IC50,second compound 1 µM,5.68 µM
same,IC50,second compound 3.16 µM,4.68 µM
same,IC50,second compound 10 µM,4.51 µM
same,"viability, T/C",[1],125%
same,"viability, T/C",[2],105%
same,"viability, T/C",[3],120%
same,"viability, T/C",[4],131%
same,"viability, T/C",[5],124%
same,"viability, T/C",[6],83.4%
same,"viability, T/C",[7],116%
same,"viability, T/C",[8],133%
same,"viability, T/C",[9],124%
same,"viability, T/C",[10],118%
same,"viability, T/C",[11],119%
same,"viability, T/C",[12],76.7%
same,"viability, T/C",[13],81.2%
same,"viability, T/C",[14],84.5%
same,"viability, T/C",[15],82.8%
same,"viability, T/C",[16],84.8%
same,"viability, T/C",[17],82.7%
same,"viability, T/C",[18],48%
same,"viability, T/C",[19],73.2%
same,"viability, T/C",[20],70%
same,"viability, T/C",[21],64.9%
same,"viability, T/C",[22],70.6%
same,"viability, T/C",[23],64.8%
same,"viability, T/C",[24],35.6%
same,"viability, T/C",[25],63.8%
same,"viability, T/C",[26],67.5%
same,"viability, T/C",[27],64.1%
same,"viability, T/C",[28],68.1%
same,"viability, T/C",[29],58.4%
same,"viability, T/C",[30],31.8%
same,"viability, T/C",[31],62.9%
same,"viability, T/C",[32],60.2%
same,"viability, T/C",[33],59.8%
same,"viability, T/C",[34],66.9%
same,"viability, T/C",[35],60.3%
same,"viability, T/C",[36],26.1%
COC1C=CCC(C)C(C)S(=O)(=O)NC(=O)c2ccc3c(c2)N(CC2CCC21)CC1(CCCc2cc(Cl)ccc21)CO3 (stereo unspecified) + CNC(=O)c1ccc(Nc2nc(OC3CCCC3)c3c(-c4ccc5nc(C)oc5c4)c[nH]c3n2)c(OC)c1,IC50,second compound 0.0316 µM,6.74 µM
same,IC50,second compound 0.1 µM,6.73 µM
same,IC50,second compound 0.316 µM,2.94 µM
same,IC50,second compound 1 µM,1.18 µM
same,IC50,second compound 3.16 µM,0.466 µM
same,IC50,second compound 10 µM,0.519 µM
same,"viability, T/C",[1],131%
same,"viability, T/C",[2],119%
same,"viability, T/C",[3],109%
same,"viability, T/C",[4],92.1%
same,"viability, T/C",[5],74.6%
same,"viability, T/C",[6],37.2%
same,"viability, T/C",[7],124%
same,"viability, T/C",[8],117%
same,"viability, T/C",[9],109%
same,"viability, T/C",[10],85.9%
same,"viability, T/C",[11],72.2%
same,"viability, T/C",[12],39.1%
same,"viability, T/C",[13],91.1%
same,"viability, T/C",[14],78.1%
same,"viability, T/C",[15],74.3%
same,"viability, T/C",[16],57.5%
same,"viability, T/C",[17],52.2%
same,"viability, T/C",[18],36.4%
same,"viability, T/C",[19],71.3%
same,"viability, T/C",[20],65.2%
same,"viability, T/C",[21],58.8%
same,"viability, T/C",[22],49.4%
same,"viability, T/C",[23],45.6%
same,"viability, T/C",[24],34.4%
same,"viability, T/C",[25],70.1%
same,"viability, T/C",[26],59%
same,"viability, T/C",[27],52.2%
same,"viability, T/C",[28],45.7%
same,"viability, T/C",[29],40.4%
same,"viability, T/C",[30],33.1%
same,"viability, T/C",[31],59.3%
same,"viability, T/C",[32],54.4%
same,"viability, T/C",[33],53%
same,"viability, T/C",[34],45.9%
same,"viability, T/C",[35],43.2%
same,"viability, T/C",[36],34%
